The values that follow come from patent US20230086703A1, “N-(4-(5-chloropyridin-3-yl)phenyl)-2-(2-(cyclopropanesulfonamido)pyrimidin-4-yl) butanamide derivatives and related compounds as human CTPS1 inhibitors for the treatment of proliferative diseases” (Step Pharma S.A.S., priority 2019, published 2023).

The first test concerns the target T1, human CTPS1 (Homo sapiens, UniProt P17812).
T1 construct: FLAG (with GG linker); His8 (with GG linker); purchased Proteros biostructures GmbH
T1 sequence (P17812 1-591): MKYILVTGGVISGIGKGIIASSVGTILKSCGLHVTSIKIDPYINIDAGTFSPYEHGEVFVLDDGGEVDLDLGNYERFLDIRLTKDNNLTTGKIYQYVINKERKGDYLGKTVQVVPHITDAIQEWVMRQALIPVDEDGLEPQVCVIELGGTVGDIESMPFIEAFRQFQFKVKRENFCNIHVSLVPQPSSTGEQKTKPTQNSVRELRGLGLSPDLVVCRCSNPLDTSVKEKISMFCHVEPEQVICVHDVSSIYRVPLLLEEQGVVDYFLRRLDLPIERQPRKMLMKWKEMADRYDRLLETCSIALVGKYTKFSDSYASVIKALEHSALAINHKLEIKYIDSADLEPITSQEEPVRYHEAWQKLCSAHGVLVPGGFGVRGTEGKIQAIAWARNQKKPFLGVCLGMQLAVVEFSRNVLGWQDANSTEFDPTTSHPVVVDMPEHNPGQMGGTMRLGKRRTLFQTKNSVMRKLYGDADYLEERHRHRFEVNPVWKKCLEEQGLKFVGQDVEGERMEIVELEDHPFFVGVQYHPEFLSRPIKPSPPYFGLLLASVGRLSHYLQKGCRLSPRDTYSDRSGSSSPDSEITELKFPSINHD
Nature of the test: RapidFire/MS-based enzyme selectivity assay (human CTPS1 versus CTPS2), CTPS1 isoform. Type of test: biochemical. The conditions noted are these: RapidFire/MS IC50 values of CTPS1 and CTPS2; Table 15. The protocol:
Human CTPS1 Versus CTPS2 Selectivity Assessment by RapidFire/MS Analysis.
The enzyme inhibitory activities against each target isoform of interest may be determined for the compounds of the invention using an optimised RapidFire high-throughput mass spectrometry (RF/MS) assay format. RF/MS assays for both human CTPS1 and CTPS2 may be performed in assay buffer consisting of 50 mM HEPES (Merck), 20 mM MgCl2, 5 mM KCl, 1 mM DTT, 0.01% Tween-20, pH to 8.0 accordingly. Human full-length active C-terminal FLAG-His-tag CTPS1 (UniProtKB—P17812, CTPS1[1-591]-[…] (CTPS1[1-591]-SEQ ID NO: 1)) may be obtained from Proteros biostructures GmbH. Human full length active C-terminal FLAG-His-Avi tagged CTPS2 (UniProtKB—Q9NRF8, CTPS2 [1-586]-[…] (CTPS2 [1-586]—SEQ ID NO: 2)) may be obtained from Harker Bio.
Human CTPS (1 or 2) protein may be prepared in 1× assay buffer to the final working protein concentration required for the reaction. A 2 uL volume per well of 2×CTPS (1 or 2) protein may be mixed with 40 nL of compound using acoustic (ECHO) delivery and incubated for 10 minutes at 25° C. Each isoform enzymatic reaction may be subsequently initiated by addition of 2 uL per well of a 2× substrate mix in assay buffer. For hCTPS1: ATP (0.3 mM), UTP (0.2 mM), GTP (0.07 mM) and L-glutamine (0.1 mM). For hCTPS2: ATP (0.1 mM), UTP (0.04 mM), GTP (0.03 mM) and L-glutamine (0.1 mM). Each mixture may be incubated for an appropriate amount of time per isoform within the determined linear phase of the reaction at 25° C. A 80 uL volume of stop solution (1% formic acid with 0.5 uM ^13C9-^15N3-CTP in H2O) may be added and the plate immediately heat-sealed and centrifuged for 10 minutes at 4,000 rpm. Following centrifugation, plates may be loaded onto the Agilent RapidFire microfluidic solid phase extraction system coupled to an API4000 triple quadrupole mass spectrometer (RF/MS) for analysis.
In all cases, the enzyme converts UTP to CTP. Highly specific and sensitive multiple reaction monitoring (MRM) MS methods may be optimised for the detection of the enzymatic reaction product, CTP, and the stable isotope labelled product standard ^13C9-^15N3-CTP. Readout for data analysis may be calculated as the ratio between the peak area of the product CTP and the internal standard ^13C9-^15N3-CTP. For data reporting, the following equation may be used:
(R=ratio/readout, P=product signal area, IS=internal standard signal area)
For each screening plate, the means of the negative (DMSO) and positive control values were used for the calculation of the respective assay window (S/B) and Z′ values. The median of the respective control values was used for calculation of percent inhibition according to the following equation:
(I=Inhibition, Rneq=median of negative control readout values, Rpos=median of positive control readout values, Rsample=sample readout value)
Percentage inhibition was then plotted against compound concentration, and the 50% inhibitory concentration (IC50) was determined from the resultant concentration-response curve.
Fold selectivity between CTPS1 and CTPS2 was subsequently calculated according to the following equation: […]
In the case of `CCOc1cncc(-c2ccc(NC(=O)C(F)(CC)c3ccnc(NS(=O)(=O)C4CC4)n3)nc2)n1` (single isomer, unassigned) [P113, 2-(2-(Cyclopropanesulfonamido)pyrimidin-4-yl)-N-(5-(6-ethoxypyrazin-2-yl)pyridin-2-yl)-2-fluorobutanamide], the “Selectivity (fold selectivity between CTPS1 and CTPS2)” value was “+ (2-30 fold (+))”.

Take `CC(C)(C(=O)Nc1ccc(-c2cncc(C3CC3)n2)cc1F)c1ccnc(NS(=O)(=O)C2CC2)n1` [P128, 2-(2-(cyclopropanesulfonamido)pyrimidin-4-yl)-N-(4-(9-cyclopropylpyrazin-2-yl)-2-fluorophenyl)-2-methylpropanamide]: the “Selectivity (fold selectivity between CTPS1 and CTPS2)” value was “+ (2-30 fold (+))”.

Regarding `CCOc1cncc(-c2ccc(NC(=O)C(CC)c3ccnc(NS(=O)(=O)C4CC4)n3)c(C)c2)n1` (stereo not shown) [P161, 2-(2-(cyclopropanesulfonamido)pyrimidin-4-yl)-N-(4-(9-ethoxypyrazin-2-yl)-2-methylphenyl)butanamide], the “Selectivity (fold selectivity between CTPS1 and CTPS2)” value is given as “+ (2-30 fold (+))”.

As for `CCC(C(=O)Nc1ccc(-c2cncc(OCC(F)(F)F)n2)cc1F)c1ccnc(NS(=O)(=O)C2CC2)n1` (stereo not shown) [P98, 2-(2-(cyclopropanesulfonamido)pyrimidin-4-yl)-N-(2-fluoro-4-(6-(2,2,2-trifluoroethoxy)pyrazin-2-yl)phenyl)butanamide], the “Selectivity (fold selectivity between CTPS1 and CTPS2)” value was “+++ (>60 fold (+++))”.

As to `CCOc1cncc(-c2ccc(NC(=O)C(C)(C)c3ccnc(NS(=O)(=O)C4CC4)n3)cc2)n1` [P65, 2-(2-(cyclopropanesulfonamido)pyrimidin-4-yl)-N-(4-(6-ethoxypyrazin-2-yl)phenyl)-2-methylpropanamide], the “Selectivity (fold selectivity between CTPS1 and CTPS2)” value was “++ (>30-60 fold (++))”.

`CCOc1cncc(-c2ccc(NC(=O)C3(c4ccnc(NS(=O)(=O)C5CC5)n4)CCCC3)nc2)n1` [P136, 1-(2-(cyclopropanesulfonamido)pyrimidin-4-yl)-N-(5-(6-ethoxypyrazin-2-yl)pyridin-2-yl)cyclopentane-1-carboxamide]: the “Selectivity (fold selectivity between CTPS1 and CTPS2)” value was “+++ (>60 fold (+++))”.

Regarding `CC(C)Oc1cncc(-c2ccc(NC(=O)C(C)(C)c3ccnc(NS(=O)(=O)C4CC4)n3)nc2)n1` [P9, 2-(2-(cyclopropanesulfonamido)pyrimidin-4-yl)-N-(5-(6-isopropoxypyrazin-2-yl)pyridin-2-yl)-2-methylpropanamide], the “Selectivity (fold selectivity between CTPS1 and CTPS2)” value is on record as “+++ (>60 fold (+++))”.

Consider `CCOc1cncc(-c2ccc(NC(=O)C3(c4ccnc(NS(=O)(=O)C5CC5)n4)CC3)cc2)n1` [P83, 1-(2-(cyclopropanesulfonamido)pyrimidin-4-yl)-N-(4-(6-ethoxypyrazin-2-yl)phenyl)cyclopropanecarboxamide], for which the “Selectivity (fold selectivity between CTPS1 and CTPS2)” value is reported as “+++ (>60 fold (+++))”.

As for `CCOc1cncc(-c2ccc(NC(=O)C3(c4ccnc(NS(=O)(=O)C5CC5)n4)CCOCC3)nc2)n1` [P115, 4-(2-(Cyclopropanesulfonamido)pyrimidin-4-yl)-N-(5-(6-ethoxypyrazin-2-yl)pyridin-2-yl)tetrahydro-2H-pyran-4-carboxamide], the “Selectivity (fold selectivity between CTPS1 and CTPS2)” value is listed as “+++ (>60 fold (+++))”.

The test is the same for the next values; noted with them: Table 16, human CTPS1 over human CTPS2, RapidFire/MS IC50 values.
For `CCOc1cncc(-c2ccc(C(=O)NC(C)(C)c3csc(NS(=O)(=O)C4CC4)n3)nc2)n1` [R26, N-(2-(2-(cyclopropanesulfon-amido)thiazol-4-yl)propan-2-yl)-5-(6-ethoxypyrazin-2-yl)picolinamide], the “Selectivity (fold selectivity between CTPS1 and CTPS2)” value is “+++ (>60 fold (+++))”.

Consider `CCc1cncc(-c2ccc(C(=O)NC(C)(C)c3csc(NS(=O)(=O)C4CC4)n3)c(F)c2)n1` [R41, N-(2-(2-(cyclopropanesulfon-amido)thiazol-4-yl)propan-2-yl)-4-(6-ethylpyrazin-2-yl)-2-fluorobenzamide], for which the “Selectivity (fold selectivity between CTPS1 and CTPS2)” value is listed as “++ (>30-60 fold (++))”.

`CCOc1cncc(-c2ccc(C(=O)NC(CC)c3csc(NS(=O)(=O)C4CC4)n3)c(F)c2)n1` (racemic) [R62, N-(1-(2-(cyclopropanesulfonamido)thiazol-4-yl)propyl)-4-(6-ethoxypyrazin-2-yl)-2-fluorobenzamide]: the “Selectivity (fold selectivity between CTPS1 and CTPS2)” value is on record as “+++ (>60 fold (+++))”.

As to `CCOc1cncc(-c2ccc(C(=O)NC(C)(C)c3csc(NS(=O)(=O)C4CC4)n3)c(C(F)(F)F)c2)n1` [R47, N-(2-(2-(cyclopropanesulfonamido)thiazol-4-yl)propan-2-yl)-4-(6-ethoxypyrazin-2-yl)-2-(trifluoromethyl)benzamide], the “Selectivity (fold selectivity between CTPS1 and CTPS2)” value was “+ (2-30 fold (+))”.

As to `CCOc1cncc(-c2cnc(C(=O)NC(C)(C)c3csc(NS(=O)(=O)C4CC4)n3)c(F)c2)n1` [R23, N-(2-(2-(cyclopropanesulfon-amido)thiazol-4-yl)propan-2-yl)-5-(6-ethoxypyrazin-2-yl)-3-fluoropicolinamide], the “Selectivity (fold selectivity between CTPS1 and CTPS2)” value is “++ (>30-60 fold (++))”.

For the molecule `COc1cncc(-c2ccc(C(=O)NC(C)(C)c3csc(NS(=O)(=O)C4CC4)n3)cc2)n1` [R54, N-(2-(2-(cyclopropanesulfon-amido)thiazol-4-yl)propan-2-yl)-4-(6-methoxypyrazin-2-yl)benzamide], the “Selectivity (fold selectivity between CTPS1 and CTPS2)” value was “+ (2-30 fold (+))”.

Another test addresses T1, human CTPS1. The test can be described thus: Human CTPS1 enzyme inhibition, ADP-Glo Max assay. The test is classed as biochemical. The conditions noted are these: ADP-Glo Max assay; Table 10; read-out: Human CTPS1 Enzyme Inhibition, IC50 grouped by potency range (CTPS1). The essentials: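 Enzyme preincubated with compound for 10 min at 25 °C in 50 mM Tris pH 8.0, 10 mM MgCl2, 0.01% Tween-20, 2 mM L-cysteine. ATP-to-ADP conversion detected by ADP-Glo Max luminescence after 60 min depletion and 60 min development steps. Percentage inhibition calculated per concentration.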
(ADP-Glo turns the ADP formed in a reaction into a luminescent signal.)
The IC50 is the midpoint of a concentration-inhibition curve. On to `CC(C)(C(=O)Nc1ccc(-c2cncc(OC(F)F)c2)cc1F)c1csc(NS(=O)(=O)C2CC2)n1` [T139, 2-(2-(cyclopropanesulfonamido)thiazol-4-yl)-N-(4-(5-(difluoromethoxy)pyridin-3-yl)-2-fluorophenyl)-2-methylpropanamide], for which the half-maximal inhibitory concentration (IC50) was under 100 nM.

In the case of `CCC(CC)(C(=O)Nc1ccc(-c2cncc(F)c2)cc1)c1csc(NS(=O)(=O)C2CC2)n1` [T156, 2-(2-(cyclopropanesulfonamido)thiazol-4-yl)-2-ethyl-N-(4-(5-fluoropyridin-3-yl)phenyl)butanamide], the IC50 is under 100 nM.

For `CCOc1cncc(-c2ccc(NC(=O)C(C)(C)c3csc(NS(=O)(=O)C(C)(C)C)n3)cc2)n1` [T304, 2-(2-((1,1-dimethylethyl)sulfonamido)thiazol-4-yl)-N-(4-(6-ethoxypyrazin-2-yl)phenyl)-2-methylpropanamide], the IC50 is 100 to 1000 nM.

For `CC(C)(C(=O)Nc1ncc(-c2cncc(C#N)c2)cc1F)c1csc(NS(=O)(=O)C2CC2)n1` [T228, N-(5′-cyano-5-fluoro-[3,3′-bipyridin]-6-yl)-2-(2-(cyclopropanesulfonamido)thiazol-4-yl)-2-methylpropanamide], the concentration for half-maximal inhibition (IC50) was under 100 nM.
